Reference: article PMC9502754, “Novel Effective Fluorinated Benzothiophene-Indole Hybrid Antibacterials against S. aureus and MRSA Strains” (Pharmaceuticals, 2022)

What follows are compounds tested against T1, MRSA pyruvate kinase (PK) (Staphylococcus aureus, UniProt Q2FG40) (assay: Kinase-Glo luminescence assay of ATP formed by purified PK from PEP and ADP).
T1 construct: gene pyk; His-tagged MRSA PK from S. aureus USA300 LAC *, pET-28a, expressed in E. coli
T1 sequence (Q2FG40 1-585): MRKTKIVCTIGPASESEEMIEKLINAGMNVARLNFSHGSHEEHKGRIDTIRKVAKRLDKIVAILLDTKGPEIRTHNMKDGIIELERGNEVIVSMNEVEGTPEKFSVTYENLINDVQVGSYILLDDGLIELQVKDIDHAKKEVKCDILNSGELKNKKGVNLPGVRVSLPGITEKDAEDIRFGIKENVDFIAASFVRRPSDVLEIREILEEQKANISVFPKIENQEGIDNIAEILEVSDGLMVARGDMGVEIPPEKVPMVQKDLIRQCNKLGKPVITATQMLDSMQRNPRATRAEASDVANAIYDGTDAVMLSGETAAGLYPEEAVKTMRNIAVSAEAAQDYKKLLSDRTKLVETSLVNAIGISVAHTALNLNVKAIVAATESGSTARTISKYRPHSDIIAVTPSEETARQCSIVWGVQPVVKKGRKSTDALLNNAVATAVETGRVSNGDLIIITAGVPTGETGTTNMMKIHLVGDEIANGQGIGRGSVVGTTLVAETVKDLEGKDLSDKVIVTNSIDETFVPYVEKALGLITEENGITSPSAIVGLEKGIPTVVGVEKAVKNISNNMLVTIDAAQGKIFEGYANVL
Type: biochemical

IC50 [nM]	SMILES
3500	Fc1cc2c(-c3c[nH]c4ccc(Br)cc34)c3[nH]c4ccc(Br)cc4c3cc2s1 [6d, 8-Bromo-4-(5-bromo-1H-indol-3-yl)-2-fluoro-5H-thieno[3,2-b]carbazole]
2100	Fc1cc2c(-c3c[nH]c4ccc(Cl)cc34)c3c(cc2s1)[nH]c1ccc(Cl)cc13 [3f, 6-Chloro-4-(5-chloro-1H-indol-3-yl)-2-fluoro-9H-thieno[2,3-b]carbazole]
1600	Oc1ccc2c(-c3c4cc(F)sc4cc4[nH]c5cc(O)ccc5c34)c[nH]c2c1 [3c, 2-Fluoro-4-(6-hydroxy-1H-indol-3-yl)-9H-thieno[2,3-b]carbazol-7-ol]
2300	Fc1cc2cc3[nH]c4cc(Cl)ccc4c3c(-c3c[nH]c4cc(Cl)ccc34)c2s1 [4f, 7-Chloro-10-(6-chloro-1H-indol-3-yl)-2-fluoro-5H-thieno[3,2-b]carbazole]
